Assay results reported in ChEMBL document CHEMBL1201862, “PubChem BioAssay data set” (2004).
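Dose response: 5 concentrations. Exposure: 48 h. Format: 96-well plates. Endpoint: linear interpolation; highest concentration if not reached. GI50 marks 50% less growth.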 Calls of active or inactive are those of the source. Cut-off read from the data, not from the text of the source: active = GI50 up to about 1.1 µM and inactive = higher.

Assays:
Test in all cases: inhibition of tumour cell growth, NCI panel, 48 h
[1] = test system: OVCAR-4
[2] = test system: A498
[3] = test system: LXFL 529
[4] = test system: K562
[5] = test system: Malme-3M
[6] = test system: NCI-H460
[7] = test system: SK-OV-3
[8] = test system: LOX IMVI
[9] = test system: NCI-H23
[10] = test system: U-251
[11] = test system: EKVX
[12] = test system: UO-31
[13] = test system: CAKI-1
[14] = test system: COLO 205
[15] = test system: HCT-116
[16] = test system: A549
[17] = test system: SR
[18] = test system: HOP-92
[19] = test system: DMS-114
[20] = test system: NCI/ADR-RES

Row | Structure (SMILES) | GI50 [1] | GI50 [2] | GI50 [3] | GI50 [4] | GI50 [5] | GI50 [6] | GI50 [7] | GI50 [8] | GI50 [9] | GI50 [10] | GI50 [11] | GI50 [12] | GI50 [13] | GI50 [14] | GI50 [15] | GI50 [16] | GI50 [17] | GI50 [18] | GI50 [19] | GI50 [20]
1 | COc1ccc(Nc2nc3c(N)cc(C(F)(F)F)cc3nc2-c2ccccc2)cc1OC | 11.9 µM (inactive) | 31.8 µM (inactive) | 15.3 µM (inactive) | 63 µM (inactive) | 16.4 µM (inactive) | 27.3 µM (inactive) | 12.7 µM (inactive) | 40.6 µM (inactive) | 32.9 µM (inactive) | 11.3 µM (inactive) | 18.5 µM (inactive) | 30.3 µM (inactive) | 22.6 µM (inactive) | 55.7 µM (inactive) | 25.6 µM (inactive) | 22 µM (inactive) | 92.7 µM (inactive) | 20.5 µM (inactive) |  | 
2 | CC1(c2cccc3c2C2(O)C=CC4(CCC32)OCCO4)OCCO1 (stereo not drawn) | > 100 µM (inactive) | > 100 µM (inactive) | > 100 µM (inactive) | > 100 µM (inactive) | > 100 µM (inactive) | > 100 µM (inactive) | > 100 µM (inactive) | > 100 µM (inactive) | > 100 µM (inactive) | > 100 µM (inactive) | > 100 µM (inactive) | > 100 µM (inactive) | > 100 µM (inactive) | > 100 µM (inactive) | > 100 µM (inactive) | > 100 µM (inactive) |  |  | > 100 µM (inactive) | 
3 | CC1=N/C(=C\c2ccc(/C=C3/N=C(C)OC3=O)cc2)C(=O)O1 | > 100 µM (inactive) | > 100 µM (inactive) | > 100 µM (inactive) | > 100 µM (inactive) | > 100 µM (inactive) |  | > 100 µM (inactive) | > 100 µM (inactive) | > 100 µM (inactive) | > 100 µM (inactive) |  | > 100 µM (inactive) | > 100 µM (inactive) | > 100 µM (inactive) | > 100 µM (inactive) | > 100 µM (inactive) |  | > 100 µM (inactive) | > 100 µM (inactive) | 
4 | Cc1cccc(C2=NC(C)(C)C(C)(C)N=C2c2cccc(C)n2)n1 | > 100 µM (inactive) | > 100 µM (inactive) | 70.5 µM (inactive) | 41.8 µM (inactive) | > 100 µM (inactive) | > 100 µM (inactive) | > 100 µM (inactive) | > 100 µM (inactive) | 30.1 µM (inactive) | > 100 µM (inactive) | > 100 µM (inactive) | > 100 µM (inactive) | > 100 µM (inactive) | 67.5 µM (inactive) | 35.4 µM (inactive) | > 100 µM (inactive) |  | > 100 µM (inactive) | 30.8 µM (inactive) | 
5 | Cc1ccc(-c2cc(-c3ccccc3)c(C#N)c(=O)n2C2OC(CO)C(O)C(O)C2O)cc1 (stereo not drawn) | > 100 µM (inactive) | > 100 µM (inactive) | > 100 µM (inactive) | 86.7 µM (inactive) | > 100 µM (inactive) | > 100 µM (inactive) | > 100 µM (inactive) | > 100 µM (inactive) | > 100 µM (inactive) | > 100 µM (inactive) | > 100 µM (inactive) | > 100 µM (inactive) |  | > 100 µM (inactive) | > 100 µM (inactive) | > 100 µM (inactive) |  | > 100 µM (inactive) | > 100 µM (inactive) | 
6 | COC(=O)[C@]1(C)CCC[C@]2(C)C3CC4OOC3(C=C4C(C)(C)O)CCC21 (stereo partly drawn) | 72.9 µM (inactive) | 24.4 µM (inactive) | 22.2 µM (inactive) | 21.9 µM (inactive) | > 100 µM (inactive) | 33.5 µM (inactive) | 76.7 µM (inactive) | 36.8 µM (inactive) | 94 µM (inactive) | > 100 µM (inactive) | 75.2 µM (inactive) | > 10 µM (inactive) | 64.6 µM (inactive) | 69.8 µM (inactive) | 31.8 µM (inactive) | 38.4 µM (inactive) |  |  | 30.8 µM (inactive) | 
7 | N#Cc1ccccc1NC(=O)/C(=N\N)C(C(=O)c1ccncc1)C1OC(=O)c2ccccc21 (stereo not drawn) | > 100 µM (inactive) |  | > 100 µM (inactive) | > 100 µM (inactive) | > 100 µM (inactive) | > 100 µM (inactive) | > 100 µM (inactive) | > 100 µM (inactive) | > 100 µM (inactive) | > 100 µM (inactive) | > 100 µM (inactive) | > 100 µM (inactive) |  | > 100 µM (inactive) | > 100 µM (inactive) | > 100 µM (inactive) | > 100 µM (inactive) | > 100 µM (inactive) |  | 
8 | OCC(O)C(OC1OC(CO)C(O)C(O)C1O)c1nn(-c2ccccc2)c2nc3cc(Cl)c(Cl)cc3cc12 (stereo not drawn) | > 100 µM (inactive) | > 100 µM (inactive) | > 100 µM (inactive) | > 100 µM (inactive) | > 100 µM (inactive) | > 100 µM (inactive) | > 100 µM (inactive) | > 100 µM (inactive) | > 100 µM (inactive) | > 100 µM (inactive) | > 100 µM (inactive) | > 100 µM (inactive) |  |  | > 100 µM (inactive) |  | > 100 µM (inactive) |  |  | 
9 | CCOC(=O)C1=C(C)C2C3C(=O)NC(=O)C3C1(C)C1C(=O)NC(=O)C21 (stereo not drawn) | > 100 µM (inactive) | > 100 µM (inactive) | > 100 µM (inactive) | > 100 µM (inactive) | > 100 µM (inactive) | > 100 µM (inactive) | > 100 µM (inactive) | > 100 µM (inactive) | > 100 µM (inactive) | > 100 µM (inactive) | > 100 µM (inactive) | > 100 µM (inactive) |  | > 100 µM (inactive) | > 100 µM (inactive) | > 100 µM (inactive) |  | > 100 µM (inactive) | > 100 µM (inactive) | 
10 | O=C(NC(CS)C(=O)O)c1c2ccccc2nc2ccccc12 (stereo not drawn) | > 100 µM (inactive) | > 100 µM (inactive) |  | 40.2 µM (inactive) | 15.2 µM (inactive) | 23.6 µM (inactive) | 95.3 µM (inactive) | 21.5 µM (inactive) | 11.2 µM (inactive) | 75 µM (inactive) | 47.5 µM (inactive) | 3.87 µM (inactive) | > 100 µM (inactive) | 4.55 µM (inactive) | 13.6 µM (inactive) | 19.7 µM (inactive) | > 100 µM (inactive) | > 100 µM (inactive) |  | 67.9 µM (inactive)
11 | CCC(/C(=N\Nc1c(Cl)cc(Cl)cc1Cl)c1ccccc1)n1ccnc1C (stereo not drawn) | 10.5 µM (inactive) | 14.2 µM (inactive) | 11.7 µM (inactive) | 5.07 µM (inactive) | 11.7 µM (inactive) | 11 µM (inactive) | 18.4 µM (inactive) | 12.2 µM (inactive) | 10.7 µM (inactive) | 12.8 µM (inactive) | 17.3 µM (inactive) | 5.97 µM (inactive) | 11 µM (inactive) | 11.6 µM (inactive) | 7.05 µM (inactive) | 13.8 µM (inactive) |  | 4.06 µM (inactive) | 6.58 µM (inactive) | 
12 | CCOC(=O)c1cc(=O)n(C)c(=O)n1C | > 100 µM (inactive) | > 100 µM (inactive) | > 100 µM (inactive) | > 100 µM (inactive) | > 100 µM (inactive) | > 100 µM (inactive) | > 100 µM (inactive) | > 100 µM (inactive) | > 100 µM (inactive) | > 100 µM (inactive) | > 100 µM (inactive) | > 100 µM (inactive) | > 100 µM (inactive) | > 100 µM (inactive) | > 100 µM (inactive) | > 100 µM (inactive) |  | > 100 µM (inactive) |  | 
13 | CCCCCCCCCCCCCP(=O)(O)O | > 100 µM (inactive) | > 100 µM (inactive) | > 100 µM (inactive) |  | > 100 µM (inactive) | > 100 µM (inactive) | > 100 µM (inactive) | > 100 µM (inactive) | > 100 µM (inactive) | 45.2 µM (inactive) | > 100 µM (inactive) | > 100 µM (inactive) |  | > 100 µM (inactive) | > 100 µM (inactive) | > 100 µM (inactive) |  | > 100 µM (inactive) | > 100 µM (inactive) | 
14 | CCC1C(c2cc(OC)c(OC)c(OC)c2)c2cc3c(cc2OC1N1CCCC1)OCO3 (stereo not drawn) | 12.7 µM (inactive) | 3.15 µM (inactive) |  | 0.752 µM (active) | 6.98 µM (inactive) | 2.84 µM (inactive) | 3.42 µM (inactive) | 2.57 µM (inactive) | 4.46 µM (inactive) | 2.56 µM (inactive) | 7.28 µM (inactive) | 4.1 µM (inactive) | 0.598 µM (active) | 1.55 µM (inactive) | 1.32 µM (inactive) | 2.76 µM (inactive) | 1.17 µM (inactive) | 4.18 µM (inactive) |  | 1.41 µM (inactive)
15 | CCOC(=O)C1N(S(=O)(=O)c2ccc(C)cc2)CCC12C(c1ccc(OC)c(OC)c1)=Nc1ccccc12 (stereo not drawn) | > 100 µM (inactive) | > 100 µM (inactive) | > 100 µM (inactive) | > 100 µM (inactive) | > 100 µM (inactive) | > 100 µM (inactive) | > 100 µM (inactive) | > 100 µM (inactive) | > 100 µM (inactive) | > 100 µM (inactive) | > 100 µM (inactive) | > 100 µM (inactive) | > 100 µM (inactive) | > 100 µM (inactive) | > 100 µM (inactive) | > 100 µM (inactive) |  | 28.5 µM (inactive) | > 100 µM (inactive) | 
16 | Nc1nc(N)c2cc(-c3ccccc3)cnc2n1 | 13.9 µM (inactive) | 14.9 µM (inactive) |  | 3.36 µM (inactive) | 8.99 µM (inactive) | 10.8 µM (inactive) | 81.1 µM (inactive) | 12.4 µM (inactive) | 12.9 µM (inactive) | 15.1 µM (inactive) | 16.9 µM (inactive) | 13 µM (inactive) | 16 µM (inactive) | 14.3 µM (inactive) | 4.66 µM (inactive) | 9.44 µM (inactive) | 6.18 µM (inactive) | 12.2 µM (inactive) |  | 24.4 µM (inactive)
